The text below walks through data of US20250205203A1, “SUBSTITUTED PYRAZOLYL COMPOUNDS AND METHODS OF USE THEREOF” (Chinook Therapeutics Canada, Inc., priority 2020, published 2025).

Each structure is given as a SMILES string.

For data set [1], the target named is T1, human recombinant C-terminal His-tagged LDHA (Homo sapiens (Human), UniProt P00338). The data set is described as follows: Human LDHA enzyme assay. Type of data set: biochemical. The following applies: 50 μM pyruvate, 50 μM NADH, 1% DMSO. How it is done:
Biochemical assays include recombinant human LDH enzymatic assays in which purified recombinant human lactate dehydrogenase A (LDHA) is incubated with test compound, substrate pyruvate and coenzyme […], and its enzymatic activity measured by the formation of NAD upon conversion of pyruvate to lactate.
(§1) Compounds were dissolved in DMSO and preincubated with human recombinant C-terminal His-tagged LDHA (0.070 μg/mL) for 10 min at room temperature in assay buffer consisting of 50 mM Tris (pH 7.5) and 100 mM NaCl in black walled, clear bottom, non-binding 96-well plates. Equal volumes of substrate solution containing 100 μM of pyruvate and 100 μM of NADH in assay buffer was added to each well (final concentration 0.035 μg/mL enzyme, 50 μM pyruvate, 50 μM NADH, and 1% DMSO). For human serum albumin (HSA) shift assay, the compounds were preincubated with the enzyme in assay buffer containing 20% HSA before substrate addition (final concentration 10% HSA). The reaction was monitored at 340 nm on a plate reader (Molecular Devices) in kinetic mode for 15 min. The rate of the reaction was determined by plotting absorbance vs time.

A short description of data set [2]: Liver-targeted tissue distribution profile study in rats. The conditions noted are these: PO 10 mg/kg, SD rats. It is filed as in vivo, rat. How it is done: Plasma and liver (target organ) concentrations of test compounds were determined in rats following a single per os (PO) administration of the test compounds. Male Sprague Dawley rats (6-8 weeks of age, Charles River Labs) were fasted overnight and a single dose of test compounds (10 mg/kg; as a suspension in 0.5% methyl cellulose) was administered by PO gavage. Rats were then sacrificed at 4 and 24 h after administration of the test compounds, and plasma and liver tissue samples were collected. Liver tissue samples were homogenized in 5 volumes of water:acetonitrile (50/50; v/v) mixture using a bead mill homogenizer. Plasma and liver homogenate samples were processed by protein precipitation using acetonitrile and the concentrations of the test compounds were determined by liquid chromatography-tandem mass spectrometry (SciEx triple quad 5500+ with Exion UPLC).

Data set [3] deals with primary mouse hepatocytes. In words: Primary mouse hepatocyte assay (lactate production). The conditions noted are these: wild type C57BL/6 hepatocytes, in presence of pyruvate. Type of data set: cell-based. How it is done:
LDH inhibitors can also be evaluated in an ex vivo assay consisting of primary mouse hepatocytes. Following isolation, viable wild-type murine hepatocytes are incubated with test compound in presence of pyruvate. Compound potency to modulate LDH enzymatic activity is then evaluated by measuring the conversion of pyruvate to lactate by the cells.
Compounds were evaluated in an ex vivo assay consisting of fresh primary mouse hepatocytes. Hepatocytes were isolated from wild type mice (C57BL/6NCrl from Charles River Labs) using a two-step collagenase perfusion technique which involves a sequential perfusion of anesthetized mice with Hanks' balanced salt solution and collagenase. Following isolation, viable wild type hepatocytes are incubated with test compound in presence of pyruvate and compound potency is evaluated by measuring the lactate produced by the cells using liquid chromatography coupled to mass spectrometry. Chromatographic separation was achieved on an XDB-C18 4.6×50 mm column (Agilent, Cat #927975-902) at a flow rate of 1 mL/min. Mobile phase A consisted of 0.1% formic acid in water and mobile phase B consisted of acetonitrile. A gradient program was initiated starting at 5% B which was held for 1 minutes, then ramped from 5% to 95% B over 1 minute. After holding at 95% B for 1 minute, the program changed back to 5% B. The column was equilibrated with 5% B for 1.5 minutes before the next injection. The mass spectrometer was operated in negative mode with electrospray ionization. The following transition along with their collision energy (CE) were used: 89→43 (CE: −16 V) for lactate and 92→45 (CE: −16 V) for ^13C3-Lactate (internal standard).

Data set [4] deals with T1, human recombinant C-terminal His-tagged LDHA. The data set is described as follows: Human LDHA enzyme assay, human serum albumin (HSA) shift assay. Type of data set: biochemical. The following applies: final concentration 10% HSA. As to the method:
as §1

For data set [5] the following is noted: PH1 patients; cited from earlier work.

In general, IC50 refers to the concentration that inhibits the measured activity by half. Regarding `NS(=O)(=O)c1ccc(Cc2c(-c3ccc(F)c(C#CC4(O)COC4)c3)nn(-c3nc(C(=O)O)cs3)c2CC2CC2)cc1F` [Example 1, 2-(5-(Cyclopropylmethyl)-3-(4-fluoro-3-((3-hydroxyoxetan-3-yl)ethynyl)phenyl)-4-(3-fluoro-4-sulfamoylbenzyl)-1H-pyrazol-1-yl)thiazole-4-carboxylic acid], in data set [1], the IC50 is less than 1 nM. For the same molecule, in data set [2], the “Measured Compound Concentration Liver-4 h” value is on record as “+++ (5 μM≥+++>1 μM)”, the “Measured Compound Concentration Liver-24 h” value is given as “++ (1 μM≥++>0.25 μM)”, the “Measured Compound Concentration Plasma-4 h” value is given as “+ (0.25 μM≥+>0 μM)” and the “Measured Compound Concentration Plasma-24 h” value is on record as “+ (0.25 μM≥+>0 μM)”. For the same molecule, in data set [3], the IC50 is less than 100 nM. For the same molecule, the half-maximal inhibitory concentration (IC50) in data set [4] was 1 to 10 nM.

On to `CC(C)(O)C#Cc1cc(-c2nn(-c3nc(C(=O)O)cs3)c(CC3CC3)c2Cc2ccc(S(N)(=O)=O)c(F)c2)ccc1F` [Example 2, 2-(5-(Cyclopropylmethyl)-3-(4-fluoro-3-(3-hydroxy-3-methylbut-1-yn-1-yl)phenyl)-4-(3-fluoro-4-sulfamoylbenzyl)-1H-pyrazol-1-yl)thiazole-4-carboxylic acid], for which, in data set [1], the IC50 is less than 1 nM. Further, in data set [2], the “Measured Compound Concentration Liver-4 h” value is “+++ (5 μM≥+++>1 μM)”, the “Measured Compound Concentration Liver-24 h” value is reported as “+++ (5 μM≥+++>1 μM)”, the “Measured Compound Concentration Plasma-4 h” value is listed as “+ (0.25 μM≥+>0 μM)” and the “Measured Compound Concentration Plasma-24 h” value is “+ (0.25 μM≥+>0 μM)”. In addition, the IC50 in data set [3] is less than 100 nM. The IC50 in data set [4] is less than 1 nM.

Consider `CC1(C#Cc2cc(-c3nn(-c4nc(C(=O)O)cs4)c(CC4CC4)c3Cc3ccc(S(N)(=O)=O)c(F)c3)ccc2F)COC1` [Example 3, 2-(5-(cyclopropylmethyl)-3-(4-fluoro-3-((3-methyloxetan-3-yl)ethynyl)phenyl)-4-(3-fluoro-4-sulfamoylbenzyl)-1H-pyrazol-1-yl)thiazole-4-carboxylic acid], for which the IC50 in data set [1] is less than 1 nM; in data set [3] it was less than 100 nM; in data set [4], 1 to 10 nM.

As to `NS(=O)(=O)c1ccc(Cc2c(-c3ccc(F)c(C#CC4(O)CCC4)c3)nn(-c3nc(C(=O)O)cs3)c2CC2CC2)cc1F` [Example 4, 2-(5-(cyclopropylmethyl)-3-(4-fluoro-3-((1-hydroxycyclobutyl)ethynyl)phenyl)-4-(3-fluoro-4-sulfamoylbenzyl)-1H-pyrazol-1-yl)thiazole-4-carboxylic acid], the IC50 was less than 1 nM in data set [1], less than 100 nM in data set [3] and 1 to 10 nM in data set [4].

As for `NS(=O)(=O)c1ccc(Cc2c(-c3ccc(F)c(C#CC4(O)CC4)c3)nn(-c3nc(C(=O)O)cs3)c2CC2CC2)cc1F` [Example 5, 2-(5-(cyclopropylmethyl)-3-(4-fluoro-3-((1-hydroxycyclopropl)ethynyl)phenyl)-4-(3-fluoro-4-sulfamoylbenzyl)-1H-pyrazol-1-yl)thiazole-4-carboxylic acid], in data set [1], the IC50 was less than 1 nM.

As to `CC(C)(O)C#Cc1cccc(-c2nn(-c3nc(C(=O)O)cs3)c(CC3CC3)c2Cc2ccc(S(N)(=O)=O)c(F)c2)c1` [Example 6, 2-(5-(cyclopropylmethyl)-4-(3-fluoro-4-sulfamoylbenzyl)-3-(3-(3-hydroxy-3-methylbut-1-yn-1-yl)phenyl)-1H-pyrazol-1-yl)thiazole-4-carboxylic acid], the IC50 in data set [1] is less than 1 nM. For the same molecule, in data set [2], the “Measured Compound Concentration Liver-4 h” value is on record as “++++ (++++>5 μM)”, the “Measured Compound Concentration Liver-24 h” value was “+++ (5 μM≥+++>1 μM)”, the “Measured Compound Concentration Plasma-4 h” value was “+ (0.25 μM≥+>0 μM)” and the “Measured Compound Concentration Plasma-24 h” value was “+ (0.25 μM≥+>0 μM)”. In addition, in data set [3], the IC50 is less than 100 nM. For the same molecule, the IC50 in data set [4] was in the range of 1 to 10 nM.

Consider `NS(=O)(=O)c1ccc(Cc2c(-c3cccc(C#CC4COC4)c3)nn(-c3nc(C(=O)O)cs3)c2CC2CC2)cc1F` [Example 7, 2-(5-(cyclopropylmethyl)-4-(3-fluoro-4-sulfamoylbenzyl)-3-(3-(oxetan-3-ylethynyl)phenyl)-1H-pyrazol-1-yl)thiazole-4-carboxylic acid], for which the IC50 in data set [1] is less than 1 nM. Besides, in data set [2], the “Measured Compound Concentration Liver-4 h” value is on record as “++++ (++++>5 μM)”, the “Measured Compound Concentration Liver-24 h” value is given as “+++ (5 μM≥+++>1 μM)”, the “Measured Compound Concentration Plasma-4 h” value is “+ (0.25 μM≥+>0 μM)” and the “Measured Compound Concentration Plasma-24 h” value is given as “+ (0.25 μM≥+>0 μM)”. Further, the IC50 in data set [3] is less than 100 nM. The IC50 in data set [4] fell in the range of 1 to 10 nM.

With `CC1(C#Cc2cccc(-c3nn(-c4nc(C(=O)O)cs4)c(CC4CC4)c3Cc3ccc(S(N)(=O)=O)c(F)c3)c2)COC1` [Example 8, 2-(5-(cyclopropylmethyl)-4-(3-fluoro-4-sulfamoylbenzyl)-3-(3-((3-methyloxetan-3-yl)ethynyl)phenyl)-1H-pyrazol-1-yl)thiazole-4-carboxylic acid], the figures for the IC50 in data set [1], in data set [3] and in data set [4] were less than 1 nM, less than 100 nM and 1 to 10 nM, respectively.

For `NS(=O)(=O)c1ccc(Cc2c(-c3cccc(C#CC4(O)COC4)c3)nn(-c3nc(C(=O)O)cs3)c2CC2CC2)cc1F` [Example 9, 2-(5-(cyclopropylmethyl)-4-(3-fluoro-4-sulfamoylbenzyl)-3-(3-((3-hydroxyoxetan-3-yl)ethynyl)phenyl)-1H-pyrazol-1-yl)thiazole-4-carboxylic acid], the IC50 in data set [1] is less than 1 nM. For the same molecule, in data set [2], the “Measured Compound Concentration Liver-4 h” value is given as “+++ (5 μM≥+++>1 μM)”, the “Measured Compound Concentration Liver-24 h” value is “++ (1 μM≥++>0.25 μM)”, the “Measured Compound Concentration Plasma-4 h” value is “+ (0.25 μM≥+>0 μM)” and the “Measured Compound Concentration Plasma-24 h” value is “+ (0.25 μM≥+>0 μM)”. The IC50 in data set [3] was less than 100 nM. For the same molecule, the IC50 in data set [4] was in the range of 1 to 10 nM.

In the case of `NS(=O)(=O)c1ccc(Cc2c(-c3ccc(F)c(C#CC4CC4)c3)nn(-c3nc(C(=O)O)co3)c2CC2CC2)cc1F` [Example 10, 2-(3-(3-(Cyclopropylethynyl)-4-fluorophenyl)-5-(cyclopropylmethyl)-4-(3-fluoro-4-sulfamoylbenzyl)-1H-pyrazol-1-yl)oxazole-4-carboxylic acid], the IC50 is less than 1 nM in data set [1], less than 100 nM in data set [3] and 1 to 10 nM in data set [4].

As to `Cc1ncc(CO)c(CO)c1O` [Pyridoxine], in data set [5], the lowering urinary oxalate result is reported as “approximately 30%”.
